What follows are molecules tested on Bovine cardiac myofibrils (assay: Dose-dependent myofibril ATPase modulation (calcium-buffered, pyruvate kinase and lactate dehydrogenase-coupled ATPase assay at pCa25)). Conditions: concentration at which ATPase activity was 1.4-fold higher than the bottom of the dose curve, mean of a minimum of two independent tests.
Format: biochemical
Protocol: In Vitro Model of Dose-Dependent Myofibril ATPase Modulation
Dose responses were measured using a calcium-buffered, pyruvate kinase and lactate dehydrogenase-coupled ATPase assay containing the following reagents (concentrations expressed are final assay concentrations): Potassium PIPES (12 mM), MgCl2 (2 mM), ATP (1 mM), DTT (1 mM), BSA (0.1 mg/ml), NADH (0.5 mM), PEP (1.5 mM), pyruvate kinase (4 U/ml), lactate dehydrogenase (8 U/ml), and antifoam (90 ppm). The pH was adjusted to 6.80 at 22° C. by addition of potassium hydroxide. Calcium levels were controlled by a buffering system containing 0.6 mM EGTA and varying concentrations of calcium, to achieve a free calcium concentration of 1×10^−4 M to 1×10^−8 M.
Bovine cardiac myofibrils were obtained by homogenizing the appropriate tissue in the presence of detergent. Such treatment removes membranes and majority of soluble cytoplasmic proteins but leaves intact cardiac sarcomeric acto-myosin apparatus. Concentrations of myofibrils were adjusted to achieve the necessary rate of ATP hydrolysis (typically 0.25-1.0 mg/ml).
Chemical entity dose responses were measured at the calcium concentration corresponding to 25% of maximal ATPase activity (pCa25), so a preliminary experiment was performed to test the response of the ATPase activity to free calcium concentrations in the range of 1×10^−4 M to 1×10^−8 M. Subsequently, the assay mixture was adjusted to the pCa25. Assays were performed by first preparing a dilution series of test chemical entity, each with an assay mixture containing potassium Pipes, MgCl2, BSA, DTT, pyruvate kinase, lactate dehydrogenase, myofibrils, antifoam, EGTA, CaCl2), and water. The assay was started by adding an equal volume of solution containing potassium Pipes, MgCl2, BSA, DTT, ATP, NADH, PEP, antifoam, and water. ATP hydrolysis was monitored by absorbance at 340 nm. The resulting dose response curve was fit by the 4 parameter equation y=Bottom+((Top−Bottom)/(1+((EC50/X)^Hill))). […] AC1.4 values reported in the table below are mean values based on a minimum of two independent tests.

Row | SMILES | AC1.4 [µM]
1 | CNc1ccc(S(=O)(=O)Nc2ccc(N3C[C@H](C)C[C@@H](C)C3)nc2)cc1C#N (racemic) [Compound 1, 3-Cyano-N-(6-(trans-3,5-dimethylpiperidin-1-yl)pyridin-3-yl)-4-(methylamino) benzenesulfonamide] | 14.3998
2 | C[C@@H]1C[C@@H](C)CN(c2ccc(NS(=O)(=O)c3ccc(N(C)C)c(C#N)c3)cn2)C1 (racemic) [Compound 2, 3-Cyano-4-(dimethylamino)-N-(6-(trans-3,5-dimethylpiperidin-l-yl)pyridin-3-yl)benzenesulfonamide] | 12.21
3 | Cc1nc2cc(C)c(S(=O)(=O)Nc3ccc(N4C[C@@H](C)C[C@H](C)C4)nc3)cc2c(=O)[nH]1 (racemic) [Compound 9, N-(6-((trans)-3,5-dimethylpiperidin-1-yl)pyridin-3-yl)-2,7-dimethyl-4-oxo-3,4-dihydroquinazoline-6-sulfonamide] | 9.2363
4 | CNc1ccc(S(=O)(=O)Nc2ccc(N3C[C@H](C)C[C@@H](C)C3)nc2)cc1C(N)=O (relative stereo) [Compound 3, 5-(N-(6-(trans-3,5-dimethylpiperidin-1-yl)pyridin-3-yl)sulfamoyl)-2-(methylamino)benzamide] | 11.94
5 | CNc1cc2nc(C)[nH]c(=O)c2cc1S(=O)(=O)Nc1ccc(-c2ccccc2)cc1 [Compound 4, N-([1,1′-biphenyl]-4-yl)-2-methyl-7-(methylamino)-4-oxo-3,4-dihydroquinazoline-6-sulfonamide] | 0.1832
6 | Cc1nc2ccc(S(=O)(=O)Nc3ccc(N4C[C@H](C)C[C@@H](C)C4)nc3)cc2c(=O)[nH]1 [Compound 5, N-(6-((3R,5R)-3,5-dimethylpiperidin-1-yl)pyridin-3-yl)-2-methyl-4-oxo-3,4-dihydroquinazoline-6-sulfonamide] | 4.4808
7 | Cc1nc2cc(OCCN3CCOCC3)c(S(=O)(=O)Nc3ccc(N4C[C@H](C)C[C@@H](C)C4)nc3)cc2c(=O)[nH]1 [Compound 6, N-(6-((3R,5R)-3,5-dimethylpiperidin-1-yl)pyridin-3-yl)-2-methyl-7-(2-morpholinoethoxy)-4-oxo-3,4-dihydroquinazoline-6-sulfonamide] | 0.7385
8 | COc1cc2nc(C)[nH]c(=O)c2cc1S(=O)(=O)Nc1ccc(N2C[C@H](C)C[C@@H](C)C2)nc1 [Compound 7, N-(6-((3R,5R)-3,5-dimethylpiperidin-1-yl)pyridin-3-yl)-7-methoxy-2-methyl-4-oxo-3,4-dihydroquinazoline-6-sulfonamide] | 1.3592
9 | CNc1cc2nc(C)[nH]c(=O)c2cc1S(=O)(=O)Nc1ccc(N2C[C@H](C)C[C@@H](C)C2)nc1 [Compound 8, N-(6-((3R,5R)-3,5-dimethylpiperidin-1-yl)pyridin-3-yl)-2-methyl-7-(methylamino)-4-oxo-3,4-dihydroquinazoline-6-sulfonamide] | 0.6695
10 | CNc1cc2c(cc1S(=O)(=O)NC1CCN(c3ccccc3)CC1)c(=O)[nH]c(=O)n2C [Compound 10, 1-Methyl-7-(methylamino)-2,4-dioxo-N-(1-phenylpiperidin-4-yl)-1,2,3,4-tetrahydroquinazoline-6-sulfonamide] | 2.8354
11 | CNc1cc2nc(C)[nH]c(=O)c2cc1S(=O)(=O)NC1CCN(c2cccc(F)c2)CC1 [Compound 11, N-(1-(3-fluorophenyl)piperidin-4-yl)-2-methyl-7-(methylamino)-4-oxo-3,4-dihydroquinazoline-6-sulfonamide] | 5.252
12 | CNc1cc2c(cc1S(=O)(=O)N[C@H]1CC[C@H](c3ccccc3)CC1)c(=O)[nH]c(=O)n2C [Compound 12] | 1.6528
13 | CNc1cc2c(cc1S(=O)(=O)NCCCNc1ccccc1)c(=O)[nH]c(=O)n2C [Compound 13, 1-Methyl-7-(methylamino)-2,4-dioxo-N-(3-(phenylamino)propyl)-1,2,3,4-tetrahydroquinazoline-6-sulfonamide] | 9.783
14 | CNc1cc2c(cc1S(=O)(=O)N[C@H]1C[C@@H](Nc3cccc(F)c3)C1)c(=O)[nH]c(=O)n2C [Compound 14, N-((cis)-3-((3-fluorophenyl)amino)cyclobutyl)-1-methyl-7-(methylamino)-2,4-dioxo-1,2,3,4-tetrahydroquinazoline-6-sulfonamide] | 0.2006
15 | CNc1cc2nc(C)[nH]c(=O)c2cc1S(=O)(=O)N[C@H]1C[C@@H](Nc2cccc(F)c2)C1 [Compound 15, N-((cis)-3-((3-fluorophenyl)amino)cyclobutyl)-2-methyl-7-(methylamino)-4-oxo-3,4-dihydroquinazoline-6-sulfonamide] | 1.019

Second part, the molecule after the results:

Row | AC1.4 [µM] | SMILES
16 | 0.2635 | Cc1[nH]c(S(=O)(=O)N[C@@H]2Cc3cc(Cl)c(Cl)cc3[C@H]2O)cc1C(=O)N1CC(C)(C#N)C1 (racemic) [Compound 99]
17 | 0.6379 | CNc1cc2c(cc1S(=O)(=O)N[C@H]1CC[C@@H](Nc3ccccc3)C1)c(=O)[nH]c(=O)n2C (relative stereo) [Compound 19, 1-Methyl-7-(methylamino)-2,4-dioxo-N-((cis)-3-(phenylamino)cyclopentyl)-1,2,3,4-tetrahydroquinazoline-6-sulfonamide]
18 | 0.0762 | CNc1cc2nc(C)[nH]c(=O)c2cc1S(=O)(=O)N[C@@H]1CCc2c([nH]c3ccccc23)C1 (single isomer, unassigned) [Compound 33]
19 | 0.081 | Cc1[nH]c(S(=O)(=O)N[C@]2(Cc3ccc(Cl)cc3)CCOC2)cc1C(=O)N1CC(C)(C#N)C1 (single isomer, unassigned) [Compound 63]
20 | 3.2638 | Cc1[nH]c(S(=O)(=O)N[C@]2(Cc3ccc(Cl)cc3)CCOC2)cc1C(=O)NCC(F)F (single isomer, unassigned) [Compound 65]
21 | 0.1121 | Cc1[nH]c(S(=O)(=O)N[C@@H]2Cc3ccc(C(F)(F)F)cc3C2)cc1C(=O)N1CC(C)(C#N)C1 (single isomer, unassigned) [Compound 76]
22 | 0.06985 | Cc1[nH]c(S(=O)(=O)N[C@@H]2Cc3cc(F)c(Cl)cc3C2)cc1C(=O)N1CC(C)(C#N)C1 (single isomer, unassigned) [Compound 83]
23 | 0.303 | Cc1[nH]c(S(=O)(=O)N[C@H]2Cc3cc(F)c(Cl)cc3C2)cc1C(=O)N1CC(C)(C#N)C1 (single isomer, unassigned) [Compound 84]
24 | 0.6294 | Cc1[nH]c(S(=O)(=O)N[C@H]2Cc3cc(Cl)c(Cl)cc3[C@@]2(C)O)cc1C(=O)N1CC(C)(C#N)C1 (single isomer, unassigned) [Compound 92]
25 | 8.4932 | Cc1[nH]c(S(=O)(=O)N[C@H]2COc3cc(Cl)ccc3C2)cc1C(=O)N1CC(C)(C#N)C1 (stereo in doubt) [Compound 16, N-(7-chlorochroman-3-yl)-4-(3-cyano-3-methylazetidine-1-carbonyl)-5-methyl-1H-pyrrole-2-sulfonamide]
26 | 0.6931 | CNc1cc2c(cc1S(=O)(=O)N[C@H]1C[C@@H](Nc3ccccc3)C1)c(=O)[nH]c(=O)n2C [Compound 17]
27 | 0.8832 | CNc1cc2c(cc1S(=O)(=O)N[C@H]1C[C@@H](Nc3ccccc3F)C1)c(=O)[nH]c(=O)n2C [Compound 18, N-((cis)-3-((2-fluorophenyl)amino)cyclobutyl)-1-methyl-7-(methylamino)-2,4-dioxo-1,2,3,4-tetrahydroquinazoline-6-sulfonamide]
28 | 3.9537 | CNc1cc2c(cc1S(=O)(=O)NC1CC(c3ccccc3)C1)c(=O)[nH]c(=O)n2C (centres unmarked) [Compound 20, 1-Methyl-7-(methylamino)-2,4-dioxo-N-(3-phenylcyclobutyl)-1,2,3,4-tetrahydroquinazoline-6-sulfonamide]
29 | 4.8236 | CNc1cc2c(cc1S(=O)(=O)NCCc1cc3ccccc3[nH]1)c(=O)[nH]c(=O)n2C [Compound 21]
30 | 0.4479 | CNc1cc2c(cc1S(=O)(=O)N[C@H]1[C@@H]3CN(c4cccc(F)c4)C[C@@H]31)c(=O)[nH]c(=O)n2C [Compound 22, N-((1R,5S,6s)-3-(3-Fluorophenyl)-3-azabicyclo[3.1.0]hexan-6-yl)-1-methyl-7-(methylamino)-2,4-dioxo-1,2,3,4-tetrahydroquinazoline-6-sulfonamide]
31 | 0.6045 | CNc1cc2c(cc1S(=O)(=O)N[C@]1(C)C[C@H](Nc3cccc(F)c3)C1)c(=O)[nH]c(=O)n2C [Compound 23, N-((cis)-3-((3-fluorophenyl)amino)-1-methylcyclobutyl)-1-methyl-7-(methylamino)-2,4-dioxo-1,2,3,4-tetrahydroquinazoline-6-sulfonamide]
32 | 5.6964 | CNc1cc2nc(C)[nH]c(=O)c2cc1S(=O)(=O)NC1CC(c2cccc(F)c2)C1 (centres unmarked) [Compound 24, N-(3-(3-fluorophenyl)cyclobutyl)-2-methyl-7-(methylamino)-4-oxo-3,4-dihydroquinazoline-6-sulfonamide]

Source: US20220332708A1 (Cytokinetics, Inc., priority 2021, published 2022)
